{"source": "patent US20040014672A1", "about": "“Novel crystalline form of 6-hydroxy-3-(4-[2-(piperidin-1-yl)ethoxy]phenoxy)-2-(4-methoxyphenyl)benzo[b]thiophene hydrochloride” (priority 2003, published 2004)", "type_in_all_cases": "physicochemical", "key": {"[1]": {"assay": "Variable temperature X-ray powder diffraction (crystal form stability)", "details": "up to 125° C., increments of 25° C.", "method": "Variable temperature X-ray powder diffraction patterns were obtained on a Siemens D5000 X-ray powder diffractometer which was equipped with a CuKα source (λ=1.54056) operated at 50 kV and 40 mA with a scintillation detector and nickel filter. The powder was packed into a top-loading, recessed temperature controlled holder and a smooth surface was obtained for diffraction. The sample was scanned from 2 to 35° 2θ at 2.5 seconds per step size of 0.04° beginning at 25° C. after an equilibration time of 5 minutes. Subsequent scans were obtained at increasing temperature increments of 25° C. to a maximum of 125° C."}, "[2]": {"assay": "Moisture sorption/desorption isotherm", "details": "over the range of 0-95% RH, 25° C.", "source_text": "It is most commonly used to study to study desolvation processes and quantatively determine the total volatile content of a solid. DSC is a technique that is often used to screen compounds for polymorphism because the temperatures(s) at which a physical change in a material occurs is usually characteristic of that material. Moisture sorption isotherms provide evaluation of the degree of hydroscopicity associated with a given material and characterization of non-hydrates and hydrates. Lastly, XRD is a technique that detects long-range order in a crystalline material. Moisture Sorption Isotherms were generated using a VTI SGA-100 flow instrument. The samples were analyzed at 25° C. from 0-95% relative humidity (RH) for adsorption and from 95-5% RH for desorption in steps of 5% RH. The adsorption and desorption isotherms were generated as a graph of the % weight change vs. % RH."}, "Aqueous solubility": {"assay": "Aqueous solubility"}}, "data": [{"smiles": "COc1ccc(-c2sc3cc(O)ccc3c2Oc2ccc(OCCN3CCCCC3)cc2)cc1.Cl", "note": "[F-V, 6-hydroxy-3-(4-[2-(piperidin-1-yl)ethoxy]phenoxy)-2-(4-methoxyphenyl)benzo[b]thiophene hydrochloride]", "values": [{"measurement": "change in the diffraction pattern on heating", "setting": "[1]", "result": "no significant change"}, {"measurement": "weight increase in moisture sorption/desorption isotherm", "setting": "[2]", "result": 0.11, "unit": "%"}, {"measurement": "higher aqueous solubility relative to F-III", "setting": "Aqueous solubility", "result": "~10", "unit": "%"}]}]}
